# Laboratory results from patent US9706772B2, “Method for fungicidal and/or bactericidal treatment of resistant strains using essential oil(s)” (XEDA INTERNATIONAL, priority 2011, dated 2017).
# Experiments:
# [1] = tested on: Botrytis spp. Strain resistant to TBZ; experiment: In-vitro inhibition of growth on PDA Petri dishes; assay type: cell-based
# Description: (§1) The samples were added to the artificial media and gently mixed before solidification of the Agar solution.
# (§2) A small amount of fungal spores is placed in the centre of the potato dextrose agar (PDA) in the Petri dishes at 25°±1° C. for 5/6 days. At the end of the incubation period, we measure the inhibition of the halo that is formed in comparison with the untreated PDA Petri dishes (control).
# (§3) The results are indicated as a percentage of the incidence of the disease and the efficacy percentage of the products tested.
# Pennicillum spp. = experiment: In-vitro inhibition of growth on PDA Petri dishes; assay type: cell-based
# Description: as §1, §2, §3
# [2] = tested on: Pennicillum spp. Strain resistant to Imazalil; experiment: In-vitro inhibition of growth on PDA Petri dishes; assay type: cell-based
# Description: as §1, §2, §3
# [3] = tested on: strains of Penicillium expansum resistant to pyrimethanil; experiment: Efficacy of compositions on Gala apples, FIG. 1; assay type: in vivo; conditions: FIG. 1, "Gala" apples; over the doses shown
# From the text: These compositions have been tested on various fungi or bacteria strains, such as illustrated in FIGS. 1 and 2. Unless otherwise indicated, the doses listed in the FIGS. 1 and 2 are given in ppm of active ingredient; the indications in ml/l refer to the quantity of composition C. […] Indeed it is observed that there is a synergistic effect between the fungicide and essential oils/terpene agents.
# [4] = tested on: Monilinia fructicola Strain resistant to Pyrimethanil; experiment: In-vitro inhibition of growth on PDA Petri dishes; assay type: cell-based; conditions: dose not stated
# Description: as §1, §2, §3
compound,measurement,setting,value
Cc1ccc(C(C)C)cc1O [Carvacrol],Efficacy (%),[1]; Dose 100 ml/hl,100%
same,Incidence of Disease (%),[1]; Dose 100 ml/hl,0%
same,Efficacy (%),[1]; Dose 300 ml/hl,100%
same,Incidence of Disease (%),[1]; Dose 300 ml/hl,0%
same,Efficacy (%),[1]; Dose 500 ml/hl,100%
same,Incidence of Disease (%),[1]; Dose 500 ml/hl,0%
same,Efficacy (%),"[1]; Dose 1,000 ml/hl",100%
same,Incidence of Disease (%),"[1]; Dose 1,000 ml/hl",0%
same,control (in words),[1]; at all doses tested,total control
Cc1ccc(C(C)C)c(O)c1 [Thymol],Efficacy (%),Pennicillum spp.; Dose 100 ml/hl,20%
same,Incidence of Disease (%),Pennicillum spp.; Dose 100 ml/hl,80%
same,Efficacy (%),Pennicillum spp.; Dose 300 ml/hl,50%
same,Incidence of Disease (%),Pennicillum spp.; Dose 300 ml/hl,50%
same,Efficacy (%),Pennicillum spp.; Dose 500 ml/hl,70%
same,Incidence of Disease (%),Pennicillum spp.; Dose 500 ml/hl,30%
same,Efficacy (%),"Pennicillum spp.; Dose 1,000 ml/hl",70%
same,Incidence of Disease (%),"Pennicillum spp.; Dose 1,000 ml/hl",30%
same,Efficacy (%),[2]; Dose 100 ml/hl,70%
same,Incidence of Disease (%),[2]; Dose 100 ml/hl,30%
same,Efficacy (%),[2]; Dose 300 ml/hl,70%
same,Incidence of Disease (%),[2]; Dose 300 ml/hl,30%
same,Efficacy (%),[2]; Dose 500 ml/hl,80%
same,Incidence of Disease (%),[2]; Dose 500 ml/hl,20%
same,Efficacy (%),"[2]; Dose 1,000 ml/hl",90%
same,Incidence of Disease (%),"[2]; Dose 1,000 ml/hl",10%
Cc1cc(C)nc(Nc2ccccc2)n1 [pyrimethanil],efficacy,[3],at most 60%
same,efficacy,[4],45%
